In US7192906B2, “Substituted pyrazole derivatives, production process thereof, and herbicide compositions containing the derivatives” (SDS Biotech K.K., priority 2001, dated 2007):

Key:
Assay type in all cases: in vivo
Chenopodium album [1] = experiment: Test Example 1 upland field foliage treatment; conditions: Table 4, upland field foliage treatment, index 0-5
In short: (§1)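 Scored 0–5 (0: under 10%, 5: 90% or more effect or phytotoxicity) on day 21 after treatment; plants sown in upland soil received a leaf-surface spray 14 days post-sowing of diluted wettable powder delivering 1 kg active ingredient/ha.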

Digitaria adscendens [2] = experiment: Test Example 1 upland field foliage treatment; conditions: Table 4, upland field foliage treatment, index 0-5
In short: as §1

Setaria viridis [3] = experiment: Test Example 1 upland field foliage treatment; conditions: Table 4, upland field foliage treatment, index 0-5
In short: as §1

Stellaria media [4] = experiment: Test Example 1 upland field foliage treatment; conditions: Table 4, upland field foliage treatment, index 0-5
In short: as §1

soybean (Glycine max) [5] = experiment: Test Example 1 upland field foliage treatment, crop phytotoxicity; conditions: Table 4, upland field foliage treatment, index 0-5
In short: as §1

[6] = system: wheat (Triticum aestivum); experiment: as above; conditions: Table 4, upland field foliage treatment, index 0-5
In short: as §1

Chenopodium album [7] = experiment: Test Example 2 upland soil treatment; conditions: Table 5, upland soil treatment, index 0-5
In short: (§2)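 Pre-emergence soil treatment: seeds sown in upland soil in pots and covered with about 1 cm soil. Next day, a water-diluted wettable powder was sprayed evenly on the soil surface at 1 kg active ingredient per hectare. Weed control or crop injury was scored 0–5 (10% to ≥90% bands) 21 days later.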

Digitaria adscendens [8] = experiment: Test Example 2 upland soil treatment; conditions: Table 5, upland soil treatment, index 0-5
In short: as §2

Setaria viridis [9] = experiment: Test Example 2 upland soil treatment; conditions: Table 5, upland soil treatment, index 0-5
In short: as §2

Stellaria media [10] = experiment: Test Example 2 upland soil treatment; conditions: Table 5, upland soil treatment, index 0-5
In short: as §2

soybean (Glycine max) [11] = experiment: Test Example 2 upland soil treatment, crop phytotoxicity; conditions: Table 5, upland soil treatment, index 0-5
In short: as §2

[12] = system: wheat (Triticum aestivum); experiment: as above; conditions: Table 5, upland soil treatment, index 0-5
In short: as §2

Ammannia multiflora = experiment: Test Example 3 paddy field treatment; conditions: paddy field treatment, wettable powder, active ingredient 1 kg per hectare, 21st day after the dropping, index 0-5
In short: (§3)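 Scoring used a 0–5 scale of herbicidal effect or phytotoxicity, from <10% to ≥90%, taken 21 days after treatment. Treatment was 1 kg a.i./ha as diluted wettable powder dripped onto 4 cm-deep flooded pots sown with the weeds, 10 days after transplanting two-leaf Koshihikari rice.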

Echinochloa crusgalli = experiment: Test Example 3 paddy field treatment; conditions: paddy field treatment, wettable powder, active ingredient 1 kg per hectare, 21st day after the dropping, index 0-5
In short: as §3

Monochoria vaginalis = experiment: Test Example 3 paddy field treatment; conditions: paddy field treatment, wettable powder, active ingredient 1 kg per hectare, 21st day after the dropping, index 0-5
In short: as §3

Scirpus juncoides = experiment: Test Example 3 paddy field treatment; conditions: paddy field treatment, wettable powder, active ingredient 1 kg per hectare, 21st day after the dropping, index 0-5
In short: as §3

Rice (Oryza sativa) = experiment: Test Example 3 paddy field treatment, crop phytotoxicity; conditions: paddy field treatment, transplanted rice Koshihikari, wettable powder, active ingredient 1 kg per hectare, 21st day after the dropping, index 0-5
In short: as §3

**Q.** Which results are given for `CON=C(Cn1cc(C)c(-c2ccccc2)n1)C(=O)NCC#N` [Compound 33]?
**A.** Herbicidal activity CA: Chenopodium album (Chenopodium album [1]): 4 (herbicidal effect of not less than 70% and less than 90%, or phytotoxicity of 70% or more and less than 90%); Herbicidal activity DA: Digitaria adscendens (Digitaria adscendens [2]): 5 (herbicidal effect of not less than 90%, or phytotoxicity of 90% or more); Herbicidal activity SV: Setaria viridis (Setaria viridis [3]): 4 (herbicidal effect of not less than 70% and less than 90%, or phytotoxicity of 70% or more and less than 90%); Herbicidal activity SM: Stellaria media (Stellaria media [4]): 4 (herbicidal effect of not less than 70% and less than 90%, or phytotoxicity of 70% or more and less than 90%); Herbicidal activity (phytotoxicity) GM: Soybean (Glycine max) (soybean (Glycine max) [5]): 0 (herbicidal effect of not less than 0% and less than 10%, or phytotoxicity of 0% or more and less than 10%); Herbicidal activity (phytotoxicity) TA: Wheat (Triticum aestivum) [6]: 0 (herbicidal effect of not less than 0% and less than 10%, or phytotoxicity of 0% or more and less than 10%); Herbicidal activity CA: Chenopodium album (Chenopodium album [7]): 5 (herbicidal effect of not less than 90%, or phytotoxicity of 90% or more); Herbicidal activity DA: Digitaria adscendens (Digitaria adscendens [8]): 5 (herbicidal effect of not less than 90%, or phytotoxicity of 90% or more); Herbicidal activity SV: Setaria viridis (Setaria viridis [9]): 4 (herbicidal effect of not less than 70% and less than 90%, or phytotoxicity of 70% or more and less than 90%); Herbicidal activity SM: Stellaria media (Stellaria media [10]): 5 (herbicidal effect of not less than 90%, or phytotoxicity of 90% or more); Herbicidal activity (phytotoxicity) GM: Soybean (Glycine max) (soybean (Glycine max) [11]): 0 (herbicidal effect of not less than 0% and less than 10%, or phytotoxicity of 0% or more and less than 10%); Herbicidal activity (phytotoxicity) TA: Wheat (Triticum aestivum) [12]: 0 (herbicidal effect of not less than 0% and less than 10%, or phytotoxicity of 0% or more and less than 10%); Herbicidal activity AM (Ammannia multiflora): 5 (herbicidal effect of not less than 90%, or phytotoxicity of 90% or more); Herbicidal activity EC (Echinochloa crusgalli): 5 (herbicidal effect of not less than 90%, or phytotoxicity of 90% or more); Herbicidal activity MV (Monochoria vaginalis): 5 (herbicidal effect of not less than 90%, or phytotoxicity of 90% or more); Herbicidal activity SJ (Scirpus juncoides): 4 (herbicidal effect of not less than 70% and less than 90%, or phytotoxicity of 70% or more and less than 90%); Herbicidal activity OS (phytotoxicity to rice) (Rice (Oryza sativa)): 0 (herbicidal effect of not less than 0% and less than 10%, or phytotoxicity of 0% or more and less than 10%)

**Q.** Which results are given for `CON=C(Cn1cc(C)c(-c2ccccc2)n1)C(=O)NCC(F)(F)F` [Compound 34]?
**A.** Herbicidal activity CA: Chenopodium album (Chenopodium album [1]): 4 (herbicidal effect of not less than 70% and less than 90%, or phytotoxicity of 70% or more and less than 90%); Herbicidal activity DA: Digitaria adscendens (Digitaria adscendens [2]): 5 (herbicidal effect of not less than 90%, or phytotoxicity of 90% or more); Herbicidal activity SV: Setaria viridis (Setaria viridis [3]): 4 (herbicidal effect of not less than 70% and less than 90%, or phytotoxicity of 70% or more and less than 90%); Herbicidal activity SM: Stellaria media (Stellaria media [4]): 4 (herbicidal effect of not less than 70% and less than 90%, or phytotoxicity of 70% or more and less than 90%); Herbicidal activity (phytotoxicity) GM: Soybean (Glycine max) (soybean (Glycine max) [5]): 0 (herbicidal effect of not less than 0% and less than 10%, or phytotoxicity of 0% or more and less than 10%); Herbicidal activity (phytotoxicity) TA: Wheat (Triticum aestivum) [6]: 0 (herbicidal effect of not less than 0% and less than 10%, or phytotoxicity of 0% or more and less than 10%); Herbicidal activity CA: Chenopodium album (Chenopodium album [7]): 5 (herbicidal effect of not less than 90%, or phytotoxicity of 90% or more); Herbicidal activity DA: Digitaria adscendens (Digitaria adscendens [8]): 5 (herbicidal effect of not less than 90%, or phytotoxicity of 90% or more); Herbicidal activity SV: Setaria viridis (Setaria viridis [9]): 4 (herbicidal effect of not less than 70% and less than 90%, or phytotoxicity of 70% or more and less than 90%); Herbicidal activity SM: Stellaria media (Stellaria media [10]): 5 (herbicidal effect of not less than 90%, or phytotoxicity of 90% or more); Herbicidal activity (phytotoxicity) GM: Soybean (Glycine max) (soybean (Glycine max) [11]): 0 (herbicidal effect of not less than 0% and less than 10%, or phytotoxicity of 0% or more and less than 10%); Herbicidal activity (phytotoxicity) TA: Wheat (Triticum aestivum) [12]: 0 (herbicidal effect of not less than 0% and less than 10%, or phytotoxicity of 0% or more and less than 10%); Herbicidal activity AM (Ammannia multiflora): 5 (herbicidal effect of not less than 90%, or phytotoxicity of 90% or more); Herbicidal activity EC (Echinochloa crusgalli): 5 (herbicidal effect of not less than 90%, or phytotoxicity of 90% or more); Herbicidal activity MV (Monochoria vaginalis): 5 (herbicidal effect of not less than 90%, or phytotoxicity of 90% or more); Herbicidal activity SJ (Scirpus juncoides): 5 (herbicidal effect of not less than 90%, or phytotoxicity of 90% or more); Herbicidal activity OS (phytotoxicity to rice) (Rice (Oryza sativa)): 1 (herbicidal effect of not less than 10% and less than 30%, or phytotoxicity of 10% or more and less than 30%)

**Q.** For `CNC(=O)C(Cn1cc(C)c(-c2ccc(C)cc2)n1)=NOC` [Compound 37], which “Herbicidal activity CA: Chenopodium album” value (Chenopodium album [1]) is on record?
**A.** 5 (herbicidal effect of not less than 90%, or phytotoxicity of 90% or more)

**Q.** What about the “Herbicidal activity DA: Digitaria adscendens” value (Digitaria adscendens [2]) of the same compound?
**A.** 5 (herbicidal effect of not less than 90%, or phytotoxicity of 90% or more)

**Q.** What about the “Herbicidal activity SV: Setaria viridis” value (Setaria viridis [3]) of the same compound?
**A.** 5 (herbicidal effect of not less than 90%, or phytotoxicity of 90% or more)

**Q.** What about the “Herbicidal activity SM: Stellaria media” value (Stellaria media [4]) of the same compound?
**A.** 5 (herbicidal effect of not less than 90%, or phytotoxicity of 90% or more)

**Q.** And the “Herbicidal activity (phytotoxicity) GM: Soybean (Glycine max)” value (soybean (Glycine max) [5])?
**A.** 0 (herbicidal effect of not less than 0% and less than 10%, or phytotoxicity of 0% or more and less than 10%)

**Q.** What about the “Herbicidal activity (phytotoxicity) TA: Wheat (Triticum aestivum)” value [6] of the same compound?
**A.** 0 (herbicidal effect of not less than 0% and less than 10%, or phytotoxicity of 0% or more and less than 10%)

**Q.** And the “Herbicidal activity CA: Chenopodium album” value (Chenopodium album [7])?
**A.** 5 (herbicidal effect of not less than 90%, or phytotoxicity of 90% or more)

**Q.** What about the “Herbicidal activity DA: Digitaria adscendens” value (Digitaria adscendens [8]) of the same compound?
**A.** 5 (herbicidal effect of not less than 90%, or phytotoxicity of 90% or more)

**Q.** What about the “Herbicidal activity SV: Setaria viridis” value (Setaria viridis [9]) of the same compound?
**A.** 5 (herbicidal effect of not less than 90%, or phytotoxicity of 90% or more)

**Q.** What about the “Herbicidal activity SM: Stellaria media” value (Stellaria media [10]) of the same compound?
**A.** 5 (herbicidal effect of not less than 90%, or phytotoxicity of 90% or more)

**Q.** And the “Herbicidal activity (phytotoxicity) GM: Soybean (Glycine max)” value (soybean (Glycine max) [11])?
**A.** 0 (herbicidal effect of not less than 0% and less than 10%, or phytotoxicity of 0% or more and less than 10%)

**Q.** What about the “Herbicidal activity (phytotoxicity) TA: Wheat (Triticum aestivum)” value [12] of the same compound?
**A.** 0 (herbicidal effect of not less than 0% and less than 10%, or phytotoxicity of 0% or more and less than 10%)

**Q.** And the “Herbicidal activity AM” value (Ammannia multiflora)?
**A.** 5 (herbicidal effect of not less than 90%, or phytotoxicity of 90% or more)

**Q.** What about the “Herbicidal activity EC” value (Echinochloa crusgalli) of the same compound?
**A.** 5 (herbicidal effect of not less than 90%, or phytotoxicity of 90% or more)

**Q.** What about the “Herbicidal activity MV” value (Monochoria vaginalis) of the same compound?
**A.** 5 (herbicidal effect of not less than 90%, or phytotoxicity of 90% or more)

**Q.** And the “Herbicidal activity SJ” value (Scirpus juncoides)?
**A.** 5 (herbicidal effect of not less than 90%, or phytotoxicity of 90% or more)

**Q.** What about the “Herbicidal activity OS (phytotoxicity to rice)” value (Rice (Oryza sativa)) of the same compound?
**A.** 1 (herbicidal effect of not less than 10% and less than 30%, or phytotoxicity of 10% or more and less than 30%)
